Test results: patent publication US4920103A, “Modifications of mycinose and 3-O-demethylmycinose in tylosin-type macrolides” (Eli Lilly and Company, priority 1986, dated 1990)
Values after ≈ are worked out from the molar mass of the structure shown. Like-named read-outs stand apart in the source and are kept apart here.

Key:
Type in all cases: cell-based
[1] = test system: Pseudomonas aeruginosa X239; assay: MIC, standard agar-dilution assay, P. aeruginosa X239
Experimental: (§1) The MIC's in Table II were determined by standard agar-dilution assays. The MIC's in Table III were obtained using conventional broth-dilution microtiter tests.

[2] = test system: Staphylococcus epidermidis EPI1; assay: MIC, standard agar-dilution assay, S. epidermidis EPI1
Experimental: as §1

[3] = test system: Klebsiella pneumoniae X68; assay: MIC, standard agar-dilution assay, K. pneumoniae X68
Experimental: as §1

[4] = test system: Staphylococcus epidermidis 222; assay: MIC, standard agar-dilution assay, S. epidermidis 222
Experimental: as §1

Escherichia coli EC14 = assay: MIC, standard agar-dilution assay, E. coli EC14
Experimental: as §1

[5] = test system: Streptococcus Group D X66; assay: MIC, standard agar-dilution assay, Streptococcus Group D X66
Experimental: as §1

[6] = test system: Staphylococcus aureus V41; assay: MIC, standard agar-dilution assay, S. aureus V41; conditions: Staphylococcus aureus, V41
Experimental: as §1

[7] = test system: Staphylococcus aureus X1.1; assay: MIC, standard agar-dilution assay, S. aureus X1.1
Experimental: as §1

[8] = test system: Streptococcus Group D 2041; assay: MIC, standard agar-dilution assay, Streptococcus Group D 2041; conditions: GROUPD2041
Experimental: as §1

[9] = test system: Haemophilus influenzae C.L.; assay: MIC, standard agar-dilution assay, H. influenzae C.L.
Experimental: as §1

[10] = test system: Staphylococcus aureus S13E; assay: MIC, standard agar-dilution assay, S. aureus S13E
Experimental: as §1

[11] = test system: Haemophilus influenzae 76; assay: MIC, standard agar-dilution assay, H. influenzae 76
Experimental: as §1

[12] = test system: Staphylococcus aureus X400; assay: MIC, standard agar-dilution assay, S. aureus X400
Experimental: as §1

[13] = test system: Streptococcus pneumoniae Park I; assay: MIC, standard agar-dilution assay, S. pneumoniae Park I; conditions: Streptococcus pneumoniae
Experimental: as §1

[14] = test system: Streptococcus pyogenes C203; assay: MIC, standard agar-dilution assay, S. pyogenes C203; conditions: Streptococcus pyogenes, C203
Experimental: as §1

[15] = agar-dilution, methicillin-resistant strain, read-out: MIC
[16] = agar-dilution, ampicillin-sensitive strain, read-out: MIC
[17] = agar-dilution, ampicillin-resistant strain, read-out: MIC

Compound	MIC [2]	MIC [4]	MIC [5]	MIC [6]	MIC [7]	MIC [8]	MIC [9]	MIC [10]	MIC [12]	MIC ([1]; agar-dilution, read-out: MIC)	MIC ([3]; agar-dilution, read-out: MIC)	MIC (Escherichia coli EC14; agar-dilution, read-out: MIC)	MIC [9, 16]	MIC [11, 17]	other results
CCC1OC(=O)CC(O)C(C)C(OC2OC(C)C(O)C(N(C)C)C2O)C(CCOc2ccccc2)CC(C)C(=O)C=CC(C)=CC1COC1OC(C)C(N(C)CC#N)C(OC)C1OC (centres unmarked) [Compound 29, 4"-[(Cyanomethyl)methylamino]-4"-deoxy-20-DH-20-O-phenyl-desmycosin]	1 µg/mL (≈ 1.11 µM)	2 µg/mL (≈ 2.22 µM)	32 µg/mL (≈ 35.5 µM)	2 µg/mL (≈ 2.22 µM)	2 µg/mL (≈ 2.22 µM)	64 µg/mL (≈ 70.9 µM)	16 µg/mL (≈ 17.7 µM)	2 µg/mL (≈ 2.22 µM)	2 µg/mL (≈ 2.22 µM)						MIC [1]: > 128 µg/mL; MIC [3]: > 128 µg/mL; MIC (Escherichia coli EC14): > 128 µg/mL; MIC [11]: 32 µg/mL (≈ 35.5 µM)
CCC1OC(=O)CC(O)C(C)C(OC2OC(C)C(O)C(N(C)C)C2O)C(CCOc2ccccc2)CC(C)C(=O)C=CC(C)=CC1COC1OC(C)C(NC)C(OC)C1OC (centres unmarked) [Compound 31, 4"-Deoxy-20-DH-4"-methylamino-20-O-phenyl-desmycosin]		0.5 µg/mL (≈ 0.579 µM)	2 µg/mL (≈ 2.32 µM)	0.5 µg/mL (≈ 0.579 µM)	0.5 µg/mL (≈ 0.579 µM)	2 µg/mL (≈ 2.32 µM)	32 µg/mL (≈ 37.1 µM)	0.25 µg/mL (≈ 0.29 µM)	0.5 µg/mL (≈ 0.579 µM)	> 128 µg/mL	> 128 µg/mL	> 128 µg/mL			MIC ([13]; agar-dilution, read-out: MIC): 0.125 µg/mL (≈ 0.145 µM); MIC ([14]; agar-dilution, read-out: MIC): 0.125 µg/mL (≈ 0.145 µM)
CCC1OC(=O)CC(O)C(C)C(OC2OC(C)C(O)C(N(C)C)C2O)C(CCOc2ccccc2)CC(C)C(=O)C=CC(C)=CC1COC1OC(C)C(N(C)C)C(OC)C1OC (centres unmarked) [Compound 33, 4"-Deoxy-20-DH-4"-dimethylamino-20-O-phenyl-desmycosin]			32 µg/mL (≈ 36.5 µM)	4 µg/mL (≈ 4.56 µM)	4 µg/mL (≈ 4.56 µM)	64 µg/mL (≈ 73 µM)	64 µg/mL (≈ 73 µM)	4 µg/mL (≈ 4.56 µM)		> 128 µg/mL	> 128 µg/mL	> 128 µg/mL			MIC ([2]; agar-dilution, read-out: MIC): 2 µg/mL (≈ 2.28 µM); MIC ([4]; agar-dilution, read-out: MIC): 2 µg/mL (≈ 2.28 µM); MIC [11]: 64 µg/mL (≈ 73 µM); MIC [12, 15]: 2 µg/mL (≈ 2.28 µM)
CCC1OC(=O)CC(O)C(C)C(OC2OC(C)C(O)C(N(C)C)C2O)C(CCOc2ccccc2)CC(C)C(=O)C=CC(C)=CC1COC1OC(C)C(NC(C)C)C(OC)C1OC (centres unmarked) [Compound 35, 4"-Deoxy-20-DH-4"-isopropylamino-20-O-phenyldesmycosin]	8 µg/mL (≈ 8.98 µM)	8 µg/mL (≈ 8.98 µM)	64 µg/mL (≈ 71.8 µM)	16 µg/mL (≈ 18 µM)	8 µg/mL (≈ 8.98 µM)			16 µg/mL (≈ 18 µM)	16 µg/mL (≈ 18 µM)	> 128 µg/mL	> 128 µg/mL	> 128 µg/mL	128 µg/mL (≈ 144 µM)	128 µg/mL (≈ 144 µM)	MIC ([8]; agar-dilution, read-out: MIC): 128 µg/mL (≈ 144 µM)
CCC1OC(=O)CC(O)C(C)C(OC2OC(C)C(O)C(N(C)C)C2O)C(CCOc2ccccc2)CC(C)C(=O)C=CC(C)=CC1COC1OC(C)C(NC(C)=O)C(OC)C1OC (centres unmarked) [Compound 37, 4"-Acetylamino-4"-deoxy-20-DH-20-O-phenyl-desmycosin]	8 µg/mL (≈ 8.98 µM)	8 µg/mL (≈ 8.98 µM)	64 µg/mL (≈ 71.8 µM)	4 µg/mL (≈ 4.49 µM)	8 µg/mL (≈ 8.98 µM)			4 µg/mL (≈ 4.49 µM)	4 µg/mL (≈ 4.49 µM)	> 128 µg/mL	> 128 µg/mL	> 128 µg/mL	> 128 µg/mL	> 128 µg/mL	MIC [13]: 4 µg/mL (≈ 4.49 µM); MIC ([14]; agar-dilution, read-out: MIC): 2 µg/mL (≈ 2.24 µM); MIC ([8]; agar-dilution, read-out: MIC): 128 µg/mL (≈ 144 µM)
CCCNC1C(C)OC(OCC2C=C(C)C=CC(=O)C(C)CC(CCOc3ccccc3)C(OC3OC(C)C(O)C(N(C)C)C3O)C(C)C(O)CC(=O)OC2CC)C(OC)C1OC (centres unmarked) [Compound 38, 4"-Deoxy-20-DH-20-O-phenyl-4"-(n-propylamino)desmycosin]		8 µg/mL (≈ 8.98 µM)				64 µg/mL (≈ 71.8 µM)		8 µg/mL (≈ 8.98 µM)		> 128 µg/mL	> 128 µg/mL	> 128 µg/mL	> 128 µg/mL	> 128 µg/mL	MIC ([2]; agar-dilution, read-out: MIC): 16 µg/mL (≈ 18 µM); MIC ([5]; agar-dilution, read-out: MIC): 16 µg/mL (≈ 18 µM); MIC [14]: 4 µg/mL (≈ 4.49 µM); MIC ([6]; agar-dilution, penicillin-resistant strain, read-out: MIC): 16 µg/mL (≈ 18 µM); MIC ([7]; agar-dilution, read-out: MIC): 16 µg/mL (≈ 18 µM); MIC [12, 15]: 16 µg/mL (≈ 18 µM)
CCC1OC(=O)CC(O)C(C)C(OC2OC(C)C(O)C(N(C)C)C2O)C(CCOc2ccccc2)CC(C)C(=O)C=CC(C)=CC1COC1OC(C)C(n2cccc2)C(OC)C1OC (centres unmarked) [Compound 46, 4"-Deoxy-20-DH-20-O-phenyl-4"-pyrrol-1-yl-desmycosin]	8 µg/mL (≈ 8.9 µM)	4 µg/mL (≈ 4.45 µM)	32 µg/mL (≈ 35.6 µM)	8 µg/mL (≈ 8.9 µM)	8 µg/mL (≈ 8.9 µM)	64 µg/mL (≈ 71.2 µM)		8 µg/mL (≈ 8.9 µM)	8 µg/mL (≈ 8.9 µM)	> 128 µg/mL		> 128 µg/mL	> 128 µg/mL	> 128 µg/mL	MIC [13]: 2 µg/mL (≈ 2.22 µM); MIC [14]: 16 µg/mL (≈ 17.8 µM)
